From patent publication US8987288B2, “Heterocyclic aminoberbamine derivatives, the preparation process and use thereof” (Hangzhou Bensheng Pharmaceutical Co., Ltd., priority 2010, dated 2015)
Converted amounts (≈) assume the structure as drawn. Like-named read-outs stand apart in the source and are kept apart here.

Key:
[1] = test system: Jurkat (acute lymphoblastic leukemia, ALL); test: Leukemia cell growth inhibition, MTT, 72 h; format: cell-based, human
Excerpt: (§1) Leukemia cell lines; human K562 leukemia cell line (chronic myeloid leukemia, CML), K562/adr (drug-resistant chronic myeloid leukemia (CML), NB4 (acute promyelocytic leukemia, AML), Kasumi-1 (acute myeloid leukemia M2 type, AML-M2), Jurkat (acute lymphoblastic leukemia, ALL), H9 (acute lymphoblastic leukemia, ALL). Obtaining 6000 well-growing leukemia cells and inoculating them into wells of a 96-well cell culture plate. The culture medium is the 1640 cell culture medium containing 10% fetal bovine serum. After adding of the berbamine derivatives of different concentrations and mixing uniformly, the plate is placed in a carbon dioxide cell incubator (5% CO2) at 37° C. and incubated for 72 hours. Then the viable cell concentration is determined by the MTT method.

MCF-7 (breast cancer) = test: Solid tumor cell growth inhibition, MTT, 72 h; format: cell-based, human
Excerpt: (§2) Human solid tumor cell lines: HepG2 (human hepatocellular carcinoma, HCC), A549 (human lung cancer), MCF-7 (breast cancer), PANC-1 (pancreatic, cancer), PC-3 (prostate cancer). MG63 (osteosarcomas). AGS (gastric cancer), Huh7 (human hepatoma cell), Becap37 (human breast cancer cell), Hela (human cervical cancer cell), RKO (human colon adenocarcinoma cell), SW620 (human colon adenocarcinoma cell), SW480 (human colon cancer cell), MGC 803 (human gastric cancer cell). Obtaining 4000 well-growing human solid tumor cells and inoculating them into wells of a 96-well cell culture plate. The culture medium is DMEM High Glucose cell culture medium containing 10% fetal bovine serum. Alter adding the berbamine derivatives of different concentration and mixing uniformly, the plate is placed in a carbon dioxide cell incubator (5% CO2) at 37° C. and incubated for 72 hours. Then the viable cell concentration is determined by the MTT method, and the cell viability (%) alter drug treatment is calculated. In this experiment, the cell viability of control group (not treated with any compound) is set as 100%.

[2] = test system: RPMI 8226 (multiple myeloma); test: Multiple myeloma cell growth inhibition, MTT, 72 h; format: cell-based, human
Protocol: Multiple myeloma and lymphoma cell lines: RPM18226 (multiple myeloma). Obtaining 6000 well-growing abovesaid tumor cells and inoculating them into wells of a 96-well cell culture plate. The culture medium is the 1640 cell culture medium containing 10% fetal bovine serum. After adding the berbamine derivatives of different concentrations and mixing uniformly, the plate is placed in a carbon dioxide cell incubator (5% CO2) at 37° C. and incubated for 72 hours. Then the viable cell concentration is determined by the MTT method.

[3] = test system: MGC 803 (human gastric cancer cell); test: Solid tumor cell growth inhibition, MTT, 72 h; format: cell-based
Excerpt: as §2

[4] = test system: SW480 (human colon cancer cell); test: Solid tumor cell growth inhibition, MTT, 72 h; format: cell-based
Excerpt: as §2

[5] = test system: HepG2 (human hepatocellular carcinoma, HCC); test: Solid tumor cell growth inhibition, MTT, 72 h; format: cell-based
Excerpt: as §2

[6] = test system: K562/adr (drug-resistant chronic myeloid leukemia); test: Leukemia cell growth inhibition, MTT, 72 h; format: cell-based, human
Excerpt: as §1

[7] = test system: K562 leukemia cell line (chronic myeloid leukemia, CML); test: Leukemia cell growth inhibition, MTT, 72 h; format: cell-based, human
Excerpt: as §1

[8] = test system: NB4 (acute promyelocytic leukemia, AML); test: Leukemia cell growth inhibition, MTT, 72 h; format: cell-based; settings: Homo sapiens, read-out: half inhibiting concentration (IC50 value) NB4
Excerpt: as §1

[9] = test system: H9 (acute lymphoblastic leukemia, ALL); test: Leukemia cell growth inhibition, MTT, 72 h; format: cell-based; settings: Homo sapiens, read-out: half inhibiting concentration (IC50 value) H9
Excerpt: as §1

[10] = test system: Kasumi-1 (acute myeloid leukemia M2 type); test: Leukemia cell growth inhibition, MTT, 72 h; format: cell-based; settings: Homo sapiens, read-out: half inhibiting concentration (IC50 value) Kasumi-1
Excerpt: as §1

MG63 (osteosarcomas) = test: Solid tumor cell growth inhibition, MTT, 72 h; format: cell-based, human
Excerpt: as §2

[11] = test system: human leukemia Jurkat cells; settings: cited from earlier work
[12] = test system: normal human peripheral blood leucocytes; settings: 0.5 ug/mL to 10 ug/mL; cited from earlier work
[13] = test system: Huh7 (human hepatoma cell); test: Solid tumor cell growth inhibition, MTT, 72 h; format: cell-based; settings: Huh-7, read-out: half inhibiting concentration (IC50 value) Huh7
Excerpt: as §2

[14] = test system: SW620 (human colon adenocarcinoma cell); test: Solid tumor cell growth inhibition, MTT, 72 h; format: cell-based; settings: SW-620, read-out: half inhibiting concentration (IC50 value) SW620
Excerpt: as §2

[15] = test system: Hela (human cervical cancer cell); test: Solid tumor cell growth inhibition, MTT, 72 h; format: cell-based; settings: read-out: half inhibiting concentration (IC50 value) Hela
Excerpt: as §2

PC-3 (prostate cancer) = test: Solid tumor cell growth inhibition, MTT, 72 h; format: cell-based; settings: Homo sapiens, read-out: half inhibiting concentration (IC50 value) PC-3
Excerpt: as §2

[16] = test system: PANC-1 (pancreatic cancer); test: Solid tumor cell growth inhibition, MTT, 72 h; format: cell-based; settings: Homo sapiens, read-out: half inhibiting concentration (IC50 value) PANC-1
Excerpt: as §2

A549 (human lung cancer) = test: Solid tumor cell growth inhibition, MTT, 72 h; format: cell-based
Excerpt: as §2

[17] = test system: Becap37 (human breast cancer cell); test: Solid tumor cell growth inhibition, MTT, 72 h; format: cell-based; settings: read-out: half inhibiting concentration (IC50 value) Becap37
Excerpt: as §2

AGS (gastric cancer) = test: Solid tumor cell growth inhibition, MTT, 72 h; format: cell-based; settings: Homo sapiens, read-out: half inhibiting concentration (IC50 value) AGS
Excerpt: as §2

[18] = test system: RKO (human colon adenocarcinoma cell); test: Solid tumor cell growth inhibition, MTT, 72 h; format: cell-based; settings: read-out: half inhibiting concentration (IC50 value) RKO
Excerpt: as §2

CaM = CaM (Homo sapiens, UniProt P0DP23); settings: higher than that of berbamine; cited from earlier work
[19] = test system: red cell membrane CaM-independent Ca2++Mg2+ ATPase; settings: stronger than that of berbamine; cited from earlier work

Compound: COc1cccc(NC(=O)c2cnc(NCCCOc3ccc4cc3Oc3ccc(cc3)CC3c5cc(c(OC)cc5CCN3C)Oc3c(OC)c(OC)cc5c3C(C4)N(C)CC5)cn2)c1 (stereo not drawn) [Compound (4), 12-O-(3-(5-(3-methoxy-phenyl-carbamoyl)-pyrazin-2-amino)-propyl)-berbamine]
- improvement of anti-Jurkat acute lymphoblastic leukemia activity compared with berbamine ([1]; vs berbamine): more than 13 fold
- improvement of anti-MCP-7 (breast cancer) cell activity compared with berbamine (MCF-7 (breast cancer); vs berbamine): more than 26 fold
- improvement of anti-RPMI8226 (multiple myeloma) cell line activity compared with berbamine ([2]; vs berbamine): more than 117 fold
- improvement of anti-MGC 803 cell activity compared with berbamine ([3]; vs berbamine): more than 8 fold
- improvement of anti-SW480 cell activity compared with berbamine ([4]; vs berbamine): more than 6 fold
- improvement of anti-HepG2 cell activity compared with berbamine ([5]; vs berbamine): about 9 fold

Compound: COc1cc2c3cc1Oc1c(OC)c(OC)cc4c1[C@@H](Cc1ccc(O)c(c1)Oc1ccc(cc1)C[C@@H]3N(C)CC2)N(C)CC4 [BBM, 6,6′,7-trimethoxy-2,2′-dimethylberbaman-12-ol]
- IC50 ([6]; Homo sapiens, K562/Adr, 72 hours, MTT, read-out: half inhibiting concentration (IC50 value) K562adr): 3.53 µg/mL (≈ 5.8 µM)
- IC50 ([1]; Homo sapiens, Jurkat, 72 hours, MTT, read-out: half inhibiting concentration (IC50 value) Jurkat): 1.9 µg/mL (≈ 3.12 µM)
- IC50 ([7]; Homo sapiens, K562, 72 hours, MTT, read-out: half inhibiting concentration (IC50 value) K562): 3 µg/mL (≈ 4.93 µM)
- IC50 [8]: 3 µg/mL (≈ 4.93 µM)
- IC50 [9]: 5.04 µg/mL (≈ 8.28 µM)
- IC50 [10]: 1.3 µg/mL (≈ 2.14 µM)
- IC50 (MCF-7 (breast cancer); Homo sapiens, MCF7, 72 hours, MTT, read-out: half inhibiting concentration (IC50 value) MCF-7): 20.6 µg/mL (≈ 33.8 µM)
- IC50 (MG63 (osteosarcomas); Homo sapiens, MG-63, 72 hours, MTT, read-out: half inhibiting concentration (IC50 value) MG63): 9.18 µg/mL (≈ 15.1 µM)
- cell viability rate ([11]; drug concentration 0.5 ug/mL): 93.69%
- cell viability rate ([11]; drug concentration 10 ug/mL): 14.85%
- IC50 ([2]; Homo sapiens, RPMI-8226, 72 hours, MTT, read-out: half inhibiting concentration (IC50 value) RPMI 8226): 1.17 µg/mL (≈ 1.92 µM)
- cytotoxicity on normal human peripheral blood leucocytes [12]: no obvious cytotoxicity
- IC50 [13]: 7.63 µg/mL (≈ 12.5 µM)
- IC50 [14]: 1.1 µg/mL (≈ 1.81 µM)
- IC50 [15]: 5.04 µg/mL (≈ 8.28 µM)
- IC50 (PC-3 (prostate cancer)): 3.7 µg/mL (≈ 6.08 µM)
- IC50 [16]: 12.7 µg/mL (≈ 20.9 µM)
- IC50 ([3]; Homo sapiens, MGC-803, 72 hours, MTT, read-out: half inhibiting concentration (IC50 value) MGC803): 4.96 µg/mL (≈ 8.15 µM)
- IC50 (A549 (human lung cancer); Homo sapiens, A549, 72 hours, MTT, read-out: half inhibiting concentration (IC50 value) A549): 5.38 µg/mL (≈ 8.84 µM)
- IC50 [17]: 7.31 µg/mL (≈ 12 µM)
- IC50 ([4]; Homo sapiens, SW480, 72 hours, MTT, read-out: half inhibiting concentration (IC50 value) SW480): 5.74 µg/mL (≈ 9.43 µM)
- IC50 (AGS (gastric cancer)): 5.84 µg/mL (≈ 9.59 µM)
- IC50 ([5]; Homo sapiens, HepG2, 72 hours, MTT, read-out: half inhibiting concentration (IC50 value) Hepg2): 6.67 µg/mL (≈ 11 µM)
- IC50 [18]: 2.34 µg/mL (≈ 3.84 µM)

Compound: COc1cc2c3cc1Oc1c(OC)c(OC)cc4c1C(Cc1ccc(OCCCNc5ncc(C(=O)Nc6c(C)cccc6Cl)s5)c(c1)Oc1ccc(cc1)CC3N(C)CC2)N(C)CC4 (stereo not drawn) [Compound (2), 12-O-(3-(5-(2-chloro-6-methyl-phenyl-carbamoyl)-thiazol-2-amino)-propyl)-berbamine]
- improvement of anti-MG63 (osteosarcoma) cell activity compared with berbamine (MG63 (osteosarcomas); vs berbamine): more than 12 fold

Compound: COc1cccc(NC(=O)c2sc(NCCCOc3ccc4cc3Oc3ccc(cc3)CC3c5cc(c(OC)cc5CCN3C)Oc3c(OC)c(OC)cc5c3C(C4)N(C)CC5)nc2C)c1 (stereo not drawn) [Compound (3), 12-O-(3-(5-(3-methoxy-phenyl-carbamoyl)-4-methyl-thiazol-2-amino)-propyl)-Berbamine]
- improvement of anti-K562 activity compared with berbamine (second mention, K562/adr meant) ([6]; vs berbamine): 8 fold
- improvement of anti-K562 activity compared with berbamine ([7]; vs berbamine): 8 fold

Compound: CCOCCCCOc1ccc2cc1Oc1ccc(cc1)C[C@H]1c3cc(c(OC)cc3CCN1C)Oc1c(OC)c(OC)cc3c1[C@@H](C2)N(C)CC3 [EBB, [O-(4-ethoxy)-butyl]-berbamine]
- specific coefficient as CaM antagonist relative to berbamine (CaM): 6.5 times

Compound: O-Dansyl berbamine [DB]
- inhibitory activity on red cell membrane CaM-independent Ca2++Mg2+ ATPase relative to berbamine [19]: 25 times

Compound: COc1cccc(NC(=O)c2ccc(NCCCOc3ccc4cc3Oc3ccc(cc3)CC3c5cc(c(OC)cc5CCN3C)Oc3c(OC)c(OC)cc5c3C(C4)N(C)CC5)nc2)c1 (stereo not drawn) [Compound (6), 12-O-(3-(5-(3-methoxy-phenyl-carbamoyl)-pyridin-2-amino)-propyl)-berbamine]
- improvement of anti-A549 (human lung cancer) cell activity compared with berbamine (A549 (human lung cancer); vs berbamine): more than 14 fold
